In BigSolDB 2.1:

Cc1cccc(C(=O)O)c1[N+](=O)[O-]
solubility (mole fraction)
Conditions	in 1,4-dioxane	in NMP	in acetone	in acetonitrile	in ethanol	in ethyl acetate	in isopropanol	in methanol	in n-propanol
283.15 K	–	0.0128	0.0253	0.00464	0.0103	0.00907	0.00877	0.0097	0.00792
285.65 K	0.0281	0.0141	0.0265	0.00501	0.0111	0.00965	0.00946	0.0104	0.00845
288.15 K	0.0303	0.0154	0.0277	0.00543	0.012	0.0102	0.0102	0.0112	0.00895
290.65 K	0.0324	0.0168	0.0291	0.00588	0.013	0.0108	0.011	0.012	0.00955
293.15 K	0.0346	0.0184	0.0305	0.00633	0.014	0.0115	0.0118	0.0129	0.0102
295.65 K	0.0371	0.0201	0.0318	0.00684	0.0152	0.0121	0.0126	0.0138	0.0109
298.15 K	0.0396	0.0218	0.0333	0.00737	0.0165	0.0128	0.0136	0.0149	0.0116
300.65 K	0.0424	0.0234	0.0347	0.00788	0.0179	0.0136	0.0145	0.0159	0.0124
303.15 K	0.0452	0.0254	0.0364	0.00846	0.0193	0.0144	0.0153	0.0171	0.0133
305.65 K	0.0483	0.0273	0.0379	0.00915	0.0207	0.0151	0.0163	0.0183	0.0141
308.15 K	0.0512	0.0296	0.0396	0.00984	0.0223	0.016	0.0175	0.0196	0.0151
310.65 K	0.0543	0.032	0.0414	0.0106	0.0238	0.017	0.0186	0.0209	0.016
313.15 K	0.0577	0.0345	0.0432	0.0113	0.0257	0.018	0.0198	0.0223	0.0169
315.65 K	0.0609	0.0372	0.045	0.0121	0.0276	0.019	0.021	0.0237	0.0178
318.15 K	0.0646	0.0405	0.0466	0.0128	0.0296	0.02	0.0224	0.0252	0.0188
